Experimental data: ChEMBL document CHEMBL1201862, “PubChem BioAssay data set” (2004)
Calls of active or inactive are those of the source.

Assays:
[1] = target: E3 ubiquitin-protein ligase Mdm2 (Homo sapiens, UniProt Q00987); assay: MDM2-luc reporter signal enhancers, multi-concentration potency testing, MDM2 ubiquitin-protein ligase inhibitor program, whole-cell format, luminescence detection, 384-well microplate (AID 1394); type: functional;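 further: MDM2 E3 inhibitors raise luminescence so EC50 is for signal enhancement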
Chain of E3 ubiquitin-protein ligase Mdm2 (Q00987 whole entry): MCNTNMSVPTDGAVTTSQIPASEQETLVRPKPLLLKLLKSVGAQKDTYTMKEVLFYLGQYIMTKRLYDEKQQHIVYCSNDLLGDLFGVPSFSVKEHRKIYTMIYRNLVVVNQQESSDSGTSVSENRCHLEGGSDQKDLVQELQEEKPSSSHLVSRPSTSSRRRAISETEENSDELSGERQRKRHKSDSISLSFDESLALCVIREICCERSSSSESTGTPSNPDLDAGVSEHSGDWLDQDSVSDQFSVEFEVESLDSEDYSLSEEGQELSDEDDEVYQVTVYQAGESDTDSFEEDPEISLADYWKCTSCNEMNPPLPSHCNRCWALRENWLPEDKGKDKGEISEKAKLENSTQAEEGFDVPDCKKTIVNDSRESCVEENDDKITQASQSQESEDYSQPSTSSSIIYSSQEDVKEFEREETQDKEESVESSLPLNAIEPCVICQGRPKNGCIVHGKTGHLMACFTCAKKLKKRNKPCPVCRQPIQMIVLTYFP

Transthyretin = Transthyretin (Homo sapiens, UniProt P02766); assay: Luminescence-based cell-based high throughput dose response assay to identify activators of Transthyretin (TTR) transcription.; type: functional
Protein RecA = target: T1, Protein RecA (Mycobacterium tuberculosis, UniProt P9WHJ3); assay: Fluorescence Cell-Free Homogeneous Dose Retest to Identify Inhibitors of RecA-Intein Splicing Activity. [Related pubchem assays (depositor defined):AID2097, AID2223, AID489010, AID492950]; type: functional
T1 sequence (P9WHJ3 whole entry): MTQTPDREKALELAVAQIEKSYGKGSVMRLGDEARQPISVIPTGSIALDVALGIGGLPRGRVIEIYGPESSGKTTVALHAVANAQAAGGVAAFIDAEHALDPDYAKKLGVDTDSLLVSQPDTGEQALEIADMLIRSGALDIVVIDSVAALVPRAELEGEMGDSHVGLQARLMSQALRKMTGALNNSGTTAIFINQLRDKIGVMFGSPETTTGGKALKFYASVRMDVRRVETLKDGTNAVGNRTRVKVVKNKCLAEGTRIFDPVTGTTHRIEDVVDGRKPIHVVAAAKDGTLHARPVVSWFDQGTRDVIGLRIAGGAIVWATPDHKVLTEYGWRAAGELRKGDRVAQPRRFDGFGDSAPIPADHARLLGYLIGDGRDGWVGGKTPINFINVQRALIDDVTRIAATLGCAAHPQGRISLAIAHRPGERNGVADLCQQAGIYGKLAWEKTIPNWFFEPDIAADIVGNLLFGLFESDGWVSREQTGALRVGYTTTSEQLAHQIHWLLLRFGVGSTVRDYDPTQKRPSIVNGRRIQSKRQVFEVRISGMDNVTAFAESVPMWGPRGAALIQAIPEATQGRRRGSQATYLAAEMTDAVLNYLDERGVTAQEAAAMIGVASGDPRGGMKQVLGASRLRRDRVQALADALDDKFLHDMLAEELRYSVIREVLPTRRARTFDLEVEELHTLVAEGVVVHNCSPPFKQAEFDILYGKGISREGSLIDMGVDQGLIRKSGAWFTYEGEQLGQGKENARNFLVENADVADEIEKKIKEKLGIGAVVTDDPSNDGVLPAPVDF

[2] = target: T2, Replicative DNA helicase DnaB (Mycobacterium tuberculosis, UniProt P9WMR3); assay: DnaB intein splicing inhibitors, dose response, biochemical, cell-free fluorescence (AID 449749); type: functional
T2 sequence (P9WMR3 whole entry): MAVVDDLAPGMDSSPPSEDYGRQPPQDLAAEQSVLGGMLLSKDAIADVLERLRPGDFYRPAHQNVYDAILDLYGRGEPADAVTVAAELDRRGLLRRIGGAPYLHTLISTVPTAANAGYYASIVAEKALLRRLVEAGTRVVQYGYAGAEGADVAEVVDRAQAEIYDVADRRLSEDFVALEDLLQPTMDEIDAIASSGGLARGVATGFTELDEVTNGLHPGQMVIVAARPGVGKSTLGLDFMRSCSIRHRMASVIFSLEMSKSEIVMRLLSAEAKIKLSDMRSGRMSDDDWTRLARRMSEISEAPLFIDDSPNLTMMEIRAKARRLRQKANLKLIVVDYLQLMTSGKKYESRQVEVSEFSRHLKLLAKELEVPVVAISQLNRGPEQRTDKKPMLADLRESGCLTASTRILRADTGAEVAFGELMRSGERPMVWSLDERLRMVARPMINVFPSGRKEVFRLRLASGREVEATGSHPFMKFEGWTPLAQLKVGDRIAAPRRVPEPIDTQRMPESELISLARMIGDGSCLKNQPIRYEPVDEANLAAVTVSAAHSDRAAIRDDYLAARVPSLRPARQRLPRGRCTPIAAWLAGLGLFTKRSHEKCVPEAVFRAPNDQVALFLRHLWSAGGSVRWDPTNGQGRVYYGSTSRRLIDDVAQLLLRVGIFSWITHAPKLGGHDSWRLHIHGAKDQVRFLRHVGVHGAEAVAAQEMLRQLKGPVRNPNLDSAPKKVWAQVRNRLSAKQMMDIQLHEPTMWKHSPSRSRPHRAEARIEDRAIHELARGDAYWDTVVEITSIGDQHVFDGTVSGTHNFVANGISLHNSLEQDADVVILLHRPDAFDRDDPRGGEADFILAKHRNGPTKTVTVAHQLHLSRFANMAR

[3] = viability inhibitors of stage V gametocytes – luminescence, dose response (AID 1117278); type: functional, cell-based;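 further: gametocytes exposed to compound for 24 hours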
[4] = viability loss in human Jurkat cells – cell-based, luminescence, cytotoxicity control for P. falciparum gametocyte viability project, dose response (AID 1117277); type: functional;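 further: potency reflects loss of cellular ATP meaning fewer viable cells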
[5] = HEK-293T viability loss after treatment – luminescence, T-cell screen hits, cytotoxicity control for TCR NF-kB inhibitor project, dose response (AID 489026); type: functional, cell-based;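 further: cells exposed to compound about 14 hours before the viability readout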
[6] = reduction of Shn3 3'UTR-driven luciferase in osteoblasts – cell-based, Clone20 osteoblasts, firefly luciferase, cherry-picked, dose response (AID 624132); type: functional;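 further: firefly luciferase luminescence from reporter carrying the Shn3 3'UTR in osteoblasts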
Vero = assay: mammalian cell viability reduction – secondary assay, cytotoxicity control for West Nile virus antiviral project, dose response (AID 1650); type: functional; details: Chlorocebus sabaeus
[7] = non-specific 3'UTR reporter inhibition in Clone20-Shn3RL – cell-based, Renilla luciferase, cherry-picked, counter-screen for Shn3 inhibitor project, dose response (AID 624133); type: functional
HEK293 = assay: EBV LMP1 TES2 canonical NF-kB signalling blockers – cell-based, HEK293, luciferase, cherry-pick, dose response (AID 588343); type: functional; details: Homo sapiens
[8] = target: Voltage-gated inwardly rectifying potassium channel KCNH2 (Homo sapiens, UniProt Q12809); assay: concentration-dependent hERG rescue from blockers – cell-based, thallium flux, dose response (AID 2121); type: ADME
Chain of Voltage-gated inwardly rectifying potassium channel KCNH2 (Q12809 whole entry): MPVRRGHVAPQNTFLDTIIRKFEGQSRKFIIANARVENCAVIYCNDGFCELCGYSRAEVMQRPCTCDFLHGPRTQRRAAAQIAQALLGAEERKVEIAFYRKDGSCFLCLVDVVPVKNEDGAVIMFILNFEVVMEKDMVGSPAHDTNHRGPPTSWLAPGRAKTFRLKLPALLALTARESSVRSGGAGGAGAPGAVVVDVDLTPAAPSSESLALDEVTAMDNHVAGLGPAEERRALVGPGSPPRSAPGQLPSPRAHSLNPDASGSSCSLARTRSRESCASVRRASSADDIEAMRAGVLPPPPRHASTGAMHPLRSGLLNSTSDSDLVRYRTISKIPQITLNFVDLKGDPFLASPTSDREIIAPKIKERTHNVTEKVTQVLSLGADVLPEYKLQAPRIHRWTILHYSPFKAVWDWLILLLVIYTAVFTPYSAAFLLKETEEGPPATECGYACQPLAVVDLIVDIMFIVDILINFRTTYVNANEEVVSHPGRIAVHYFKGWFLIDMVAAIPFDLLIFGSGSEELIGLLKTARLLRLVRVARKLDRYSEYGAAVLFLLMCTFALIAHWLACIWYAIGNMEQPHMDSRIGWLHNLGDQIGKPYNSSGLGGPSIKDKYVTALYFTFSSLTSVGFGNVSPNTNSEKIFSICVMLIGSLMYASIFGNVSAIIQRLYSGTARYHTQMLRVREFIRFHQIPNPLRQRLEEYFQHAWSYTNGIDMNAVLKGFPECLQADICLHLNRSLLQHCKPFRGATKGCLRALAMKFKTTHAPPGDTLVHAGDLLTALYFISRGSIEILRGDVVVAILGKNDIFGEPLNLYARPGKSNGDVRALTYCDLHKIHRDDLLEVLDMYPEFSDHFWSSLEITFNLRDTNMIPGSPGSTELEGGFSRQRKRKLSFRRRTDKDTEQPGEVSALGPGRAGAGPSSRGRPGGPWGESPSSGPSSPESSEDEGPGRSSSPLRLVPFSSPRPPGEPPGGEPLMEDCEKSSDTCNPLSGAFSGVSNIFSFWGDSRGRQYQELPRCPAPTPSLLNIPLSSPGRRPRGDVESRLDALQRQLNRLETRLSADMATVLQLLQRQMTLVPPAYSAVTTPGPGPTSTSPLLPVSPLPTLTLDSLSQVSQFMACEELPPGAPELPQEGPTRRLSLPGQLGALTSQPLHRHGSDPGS

CC(=O)Nc1ccc(S(=O)(=O)N2CCN=C2SCc2cccnc2)cc1
EC50 [1]: 9.39 µM (not active)

COc1ccc2[nH]c3c(Cl)ncnc3c2c1
EC50 (Transthyretin): > 167 µM (inactive) | EC50 (Protein RecA): > 380 µM (inactive) | AC50 [2]: > 380 µM (inactive)

NC(=O)C1CCN(C(=O)CN2CCc3ccccc32)CC1
IC50 [3]: > 109 µM (inactive) | IC50 [4]: > 83.3 µM (inactive)

CS(=O)(=O)c1ccc(Sc2nc3ccccc3s2)c([N+](=O)[O-])c1
IC50 [5]: 79.5 µM (inactive) | AC50 [6]: 9.73 µM (active) | CC50 (Vero): 18.3 µM (active) | AC50 [7]: 31.2 µM (active) | AC50 (HEK293): 4.87 µM (active)

COc1ccc(C(=O)NNC(=O)C(=O)Nc2ccc(C)c(Cl)c2)cc1
EC50 [8]: 0.06 µM (active)
